According to patent publication US6583127B1, “Use of etherlysophospholipids as antiinflammatory agents” (Inkeysa. SA, priority 1998, dated 2003):
Read-outs that look alike come from different tables or passages of the source.

Assays:
neutrophils = test: Toxicity for neutrophils; assay type: cell-based, human
Source text: (§1) Isolation and treatment of neutrophils.

[1] = tested on: bentonite-induced skin edema in mice; test: Bentonite-induced skin edema in mice; assay type: in vivo; conditions: for Area (area below the curve of difference between right and left pad diameter) / Inhibition of the inflammatory process: mice; for Inhibition of the inflammatory process: versus inflamed control
Source text: Mice were individually identified with an ear code and were kept in groups of 6 per cage (Makrolon: 47.6×22.7×14.5 cm). Each cage was individually labelled with the n^o. of the study, type of treatment, doses used and route of administration, as well as the name of the director of the study, number and gender of contained animals, date of arrival and of the beginning of the experiment.
The animals had free access to mouse standard chow (UAR A04C; Usine d'Alimentation Rationelle, 91360-Villemoisson sur Orge, Francia; lot nos. 70520 and 70722). Drinking water access was ad libitum. The water, supplied by the Compañia de Aguas de Sabadell, S.A., is routinely analysed for the presence of possible contaminants. The temperature in the animal rooms was 22±3° C., with sporadic peaks of 26° C.; air humidity was 60±10%, with sporadic peaks of 80%. Daily light (between 7:00 h and 19:00 h) and dark phases were installed automatically.
Upon arrival, all animals were allowed to rest in the facilities for 8 days before use in the experiment. Table 2 indicates the six random groups of 10 mice each were set for experimentation.
The diameter of both hind pads of all mice was measured at day 0 and set as the basal value. Edema was then induced by injecting s.c. 13.3 mg/ml bentonite in 0.03 ml PBS into the right food pad. The corresponding mice were given daily the different compounds orally for 21 days. The inflamed control group was given 0.2 ml PBS only. The diameter of hind pads, as well as the body weight, was then measured every other day.
In each experimental group the average value, the standard deviation (SD) and the standard error was determined for the two parameters studied (hind pad diameter and body weight). The factor variance analysis (FVA) was used to compare the values obtained in the different groups. Where statistically significant differences were observed, the Duncan-Kramer test for a p<0.05 was applied.
The area below the curves corresponding to the diameters of the right and left pads was calculated and the evolution of the difference between them were plotted (FIGS. 7 and 8). The anti-inflammatory capacity of the different substances was evaluated as the extent of inhibition of the inflammatory process that was calculated with the formula [formula]
where C is the area below the inflammed control group and T the area below the different treatment groups.

HLA = conditions: human neutrophils, Medium = 100
Experimental: Isolation and treatment of neutrophils. Human neutrophils were obtained from fresh peripheral blood by dextran sedimentation and centrifugation on Ficoll-Hypaque followed by hypotonic lysis of residual erythrocytes. […] Cells were resuspended at 3×10^6 neutrophils/ml in HEPES/glucose buffer (150 mM NaCl, 5 mM KCl, 10 mM HEPES, 1.2 mM MgCl2, 1.3 mM CaCl2, 5.5 mM glucose, pH 7.5), and incubated in the absence or presence of distinct agents at 37° C. for the times indicated in the respective legends to figures. Subsequently, cells were pelleted by centrifugation and saved to determine the content of different cell surface antigens by flow cytometry.
Monoclonal antibodies. The following monoclonal antibodies were used: TS1/11 anti-CD11a, Bear-1 anti-CD11b, TP1/36.1 anti-CD43, HP2/9 anti-CD44, Leu-8 anti-L-selectin, and W6/32, specific for a monomorphic determinant on HLA-A, B molecules. P3X63 myeloma culture supernatant was used as a negative control. The antibodies are commercially available.
Immunofluorescence flow cytometry. Immunofluorescence flow cytometry analysis was performed in a FACStar-Plus and a FACScan flow cytometers (Becton-Dickinson). Neutrophils were incubated at 4° C. with the corresponding monoclonal antibody followed by washing and labelling with a fluorescein isothiocyanate (FITC)-labelled-goat anti-mouse IgG antibody (DAKO, Glostrup, Denmark). Mean fluorescence intensity (MFI) in linear scale was obtained from at least 7000 cells in each sample, and the fluorescence produced by the myeloma P3X63 supernatant was considered as background. Results were expressed as relative MFI (rMFI), such that
(§2) rMFI=(MFIagent×100)/MFImedium
(§3) Background fluorescence was substracted from all values.

phospholipase A2 (PLA2) = test: [3H]arachidonic acid release as assay for PLA2 activity; assay type: cell-based; conditions: FIG. 10
Experimental: Measurement of arachidonic acid release. Arachidonic acid release was measured as an assay for phospholipase A2 (PLA2) activity, because this enzyme activity constitutes the major pathway controlling arachidonic acid release. Cells (5×10^5/ml) were labeled overnight with 0.1 μCi of [^3H]arachidonic acid/ml in RPMI-1640 culture medium containing 10% fetal calf serum. Then cells were washed four times with culture medium, and cells were resuspended in […] culture medium in the absence of serum in the absence (control) or in the presence of distinct agents for the times indicated in the respective figures. After this period, cells were pelleted by centrifugation and supernatants were transferred to scintillation vials and counted for radioactivity. Results are shown as cpm of labelled arachidonic acid released to the extracellular medium.

L-selectin (CD62L) = test: Cell surface expression of L-selectin in human neutrophils (immunofluorescence flow cytometry); assay type: cell-based; conditions: for L-Selectin cell surface expression (rMFI): Medium = 100
Source text: as §1
Monoclonal antibodies. […] The antibodies are commercially available.
Immunofluorescence flow cytometry. […] Results were expressed as relative MFI (rMFI), such that
as §2, §3

[2] = 2.5 mg/kg orally daily for 21 days
[3] = 5 mg/kg orally daily for 21 days

CCCCCCCCCCCCCCCCCCOCC(COP(=O)([O-])OCC[N+](C)(C)C)OC (stereo not shown) [IEC01, Edelfosine]
concentrations toxic for neutrophils (neutrophils): higher than 50 μg/ml | times more efficient in inhibiting inflammation than indomethacin, at the molecular level ([1]; 2.5 mg/kg versus indomethacin 2 mg/kg, taking molecular weights into account): 2 times | Area (area below the curve of difference between right and left pad diameter) [1, 2]: 5.9 ± 0.45 A.U. | Inhibition of the inflammatory process [1, 2]: 23.5% | Area (area below the curve of difference between right and left pad diameter) [1, 3]: 7.0 ± 1.34 A.U. | Inhibition of the inflammatory process [1, 3]: 9.7% | HLA cell surface expression (rMFI) (HLA; 10 ng/ml): 101 ± 5 | HLA cell surface expression (rMFI) (HLA; 100 ng/ml): 100 ± 4 | HLA cell surface expression (rMFI) (HLA; 500 ng/ml): 99 ± 5 | HLA cell surface expression (rMFI) (HLA; 1 μg/ml): 102 ± 6 | HLA cell surface expression (rMFI) (HLA; 5 μg/ml): 101 ± 5 | PLA2 activity, as measured by [3H]arachidonic acid release (phospholipase A2 (PLA2)): able to stimulate | times more effective than aceclofenac in promoting L-selectin down-regulation (L-selectin (CD62L); after correcting for the different molecular weights): 100 times | IC50 (L-selectin (CD62L); converted from μg/ml values, read-out: IC50 for L-selectin down-regulation, corrected for molecular weight): 0.194 µM | concentration at which L-selectin reduction reaches a maximum (L-selectin (CD62L); human neutrophils): 1 µg/mL | IC50 for L-selectin down-regulation (L-selectin (CD62L); human neutrophils (FIG. 1)): about 0.1 μg/ml | time for decrease in cell surface L-selectin content to reach a maximum (L-selectin (CD62L); human neutrophils (data not shown)): ≤ 5 min | L-Selectin cell surface expression (rMFI) (L-selectin (CD62L); human neutrophils, 10 ng/ml): 83.5 ± 4 | L-Selectin cell surface expression (rMFI) (L-selectin (CD62L); human neutrophils, 100 ng/ml): 56 ± 6 | L-Selectin cell surface expression (rMFI) (L-selectin (CD62L); human neutrophils, 500 ng/ml): 35 ± 5.5 | L-Selectin cell surface expression (rMFI) (L-selectin (CD62L); human neutrophils, 1 μg/ml): 18 ± 6 | L-Selectin cell surface expression (rMFI) (L-selectin (CD62L); human neutrophils, 5 μg/ml): 22 ± 8
